Laboratory results: patent US12350270B2, “Antimalarial agents” (Merck Sharp & Dohme LLC, priority 2019, dated 2025)

system: parasites (ring stage, in human red blood cell culture); experiment: Parasite LDH growth assay (antiparasite potency, Parasite Assay); assay type: cell-based, Plasmodium falciparum; conditions: 0.7% rings, 2% haematocrit, 72 hours at 37° C., LDH readout of parasite growth
Summary of the method: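 Ring-stage parasites at 0.7% parasitemia and 2% haematocrit, in RPMI-Hepes/bicarbonate with 5% heat-inactivated human serum and 0.5% albumax, were added to compound-containing medium. Cultures grew 72 h at 37 °C in gassed humidified boxes. Plates were then frozen overnight at −80 °C, thawed 4 h, and growth was measured by LDH assay.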

First: COCC1(C)Oc2ccc(C(=O)N[C@@H]3c4ccccc4OC(C)(C)[C@H]3O)cc2C1N1C(=N)NC(C)(C)CC1=O (stereo partly drawn) [Example 256, N-[(3S,4R)-3-hydroxy-2,2-dimethyl-chroman-4-yl]-3-(2-imino-4,4-dimethyl-6-oxo-hexahydropyrimidin-1-yl)-2-(methoxymethyl)-2-methyl-3H-benzofuran-5-carboxamide]
Second: CCOC(=O)C1(C)Oc2ccccc2C1NC(=O)c1ccc2c(c1)[C@H](N1C(=N)NC(CC)(CC)CC1=O)CCO2 (stereo partly drawn) [Example 275, ethyl 3-[[(4R)-4-(4,4-diethyl-2-imino-6-oxo-hexahydropyrimidin-1-yl)chromane-6-carbonyl]amino]-2-methyl-3H-benzofuran-2-carboxylate]
The EC50 of the first is 2.9-fold lower: 8.9 nM for the first, 25.7 nM for the second. The first is the more potent here.

Compound COCC1(C)Oc2ccc(C(=O)N[C@@H]3c4ccccc4OC(C)(C)[C@H]3O)cc2C1N1C(=N)NC(C)(C)CC1=O (stereo partly drawn) [Example 257, N-[(3S,4R)-3-hydroxy-2,2-dimethyl-chroman-4-yl]-3-(2-imino-4,4-dimethyl-6-oxo-hexahydropyrimidin-1-yl)-2-(methoxymethyl)-2-methyl-3H-benzofuran-5-carboxamide] has an EC50 of 189 nM.

same assay, conditions: Plasmodium falciparum, Erythrocyte, 72 h, 0.7% rings, 2% haematocrit, 72 hours at 37° C., LDH readout of parasite growth

Going from CCC1(CC)CC(=O)N([C@H]2c3cc(C(=O)N[C@@H]4c5ccccc5CC[C@H]4O)ccc3O[C@@]2(C)COC)C(=N)N1 [Example 249, (2R,3S)-3-(4,4-diethyl-2-imino-6-oxo-hexahydropyrimidin-1-yl)-N-[(1R,2R)-2-hydroxytetralin-1-yl]-2-(methoxymethyl)-2-methyl-3H-benzofuran-5-carboxamide] to CCC1(CC)CC(=O)N([C@H]2c3cc(C(=O)N[C@H]4c5ccccc5CC[C@@H]4O)ccc3O[C@@]2(C)COC)C(=N)N1 [Example 250, (2R,3S)-3-(4,4-diethyl-2-imino-6-oxo-hexahydropyrimidin-1-yl)-N-[(1S,2S)-2-hydroxytetralin-1-yl]-2-(methoxymethyl)-2-methyl-3H-benzofuran-5-carboxamide], the EC50 rises from 1.1 nM to 219 nM (200-fold).

Going from CC[C@]1(C)CC(=O)N([C@H]2c3cc(C(=O)N[C@@H]4c5ccccc5OC[C@@]4(C)O)ccc3OC[C@@H]2COC)C(=N)N1 [Example 252, (3S,4R)-4-[(4R)-4-ethyl-2-imino-4-methyl-6-oxo-hexahydropyrimidin-1-yl]-N-[(3S,4R)-3-hydroxy-3-methyl-chroman-4-yl]-3-(methoxymethyl)chromane-6-carboxamide] to CCC1(CC)CC(=O)N([C@H]2c3cc(C(=O)N[C@@H]4c5ccccc5OC[C@]4(C)O)ccc3OC[C@@H]2OC)C(=N)N1 [Example 253, (3R,4S)-4-(4,4-diethyl-2-imino-6-oxo-hexahydropyrimidin-1-yl)-N-[(3R,4R)-3-hydroxy-3-methyl-chroman-4-yl]-3-methoxy-chromane-6-carboxamide], the EC50 rises from 2.1 nM to 4.3 nM (2-fold). The first is the more potent here.

Compared with CCC1(CC)CC(=O)N([C@H]2c3cc(C(=O)N[C@@H]4c5ccccc5OC[C@@]4(C)O)ccc3OC[C@@H]2OC)C(=N)N1 [Example 254, (3R,4S)-4-(4,4-diethyl-2-imino-6-oxo-hexahydropyrimidin-1-yl)-N-[(3S,4R)-3-hydroxy-3-methyl-chroman-4-yl]-3-methoxy-chromane-6-carboxamide], CCC1(CC)CC(=O)N([C@H]2c3cc(C(=O)N[C@@H]4c5ccccc5OC[C@]4(C)O)ccc3O[C@]2(C)COC)C(=N)N1 [Example 278, (2S,3S)-3-(4,4-diethyl-2-imino-6-oxo-hexahydropyrimidin-1-yl)-N-[(3R,4R)-3-hydroxy-3-methyl-chroman-4-yl]-2-(methoxymethyl)-2-methyl-3H-benzofuran-5-carboxamide] is 3.6-fold higher in EC50: 3.4 nM for the first, 12.2 nM for the second.

Going from CC[C@]1(C)CC(=O)N([C@H]2c3cc(C(=O)N[C@@H]4c5ccccc5OC(C)(C)[C@H]4O)ccc3OC[C@@H]2OC)C(=N)N1 [Example 255, (3R,4S)-4-[(4R)-4-ethyl-2-imino-4-methyl-6-oxo-hexahydropyrimidin-1-yl]-N-[(3S,4R)-3-hydroxy-2,2-dimethyl-chroman-4-yl]-3-methoxy-chromane-6-carboxamide] to CCC1(CC)CC(=O)N([C@H]2c3cc(C(=O)N[C@@H]4c5ccccc5OC(C)(C)[C@H]4O)ccc3CC[C@@H]2OC)C(=N)N1 [Example 276, (3S,4S)-4-(4,4-diethyl-2-imino-6-oxo-hexahydropyrimidin-1-yl)-N-[(3S,4R)-3-hydroxy-2,2-dimethyl-chroman-4-yl]-3-methoxy-tetralin-6-carboxamide], the EC50 falls from 3.3 nM to 0.6 nM (5.5-fold).

First: CCC1(CC)CC(=O)N([C@@H]2CCS(=O)(=O)c3ccc(C(=O)N[C@@H]4c5ccccc5C[C@@]4(C)O)cc32)C(=N)N1 [Example 260, (4R)-4-(4,4-diethyl-2-imino-6-oxo-hexahydropyrimidin-1-yl)-N-[(1R,2R)-2-hydroxy-2-methyl-indan-1-yl]-1,1-dioxo-3,4-dihydro-2H-thiochromene-6-carboxamide]
Second: CCC1(CC)CC(=O)N([C@H]2CCS(=O)(=O)c3ccc(C(=O)N[C@@H]4c5ccccc5C[C@@]4(C)O)cc32)C(=N)N1 [Example 261, (4S)-4-(4,4-diethyl-2-imino-6-oxo-hexahydropyrimidin-1-yl)-N-[(1R,2R)-2-hydroxy-2-methyl-indan-1-yl]-1,1-dioxo-3,4-dihydro-2H-thiochromene-6-carboxamide]
The EC50 of the first is 16-fold lower: 8.2 nM for the first, 133 nM for the second.

Compared with CCC1(CC)CC(=O)N([C@@H]2CCS(=O)(=O)c3ccc(C(=O)N[C@@H]4c5ccccc5C[C@]4(C)O)cc32)C(=N)N1 [Example 262, (4R)-4-(4,4-diethyl-2-imino-6-oxo-hexahydropyrimidin-1-yl)-N-[(1R,2S)-2-hydroxy-2-methyl-indan-1-yl]-1,1-dioxo-3,4-dihydro-2H-thiochromene-6-carboxamide], CCC1(CC)CC(=O)N([C@H]2CCS(=O)(=O)c3ccc(C(=O)N[C@@H]4c5ccccc5C[C@]4(C)O)cc32)C(=N)N1 [Example 263, (4S)-4-(4,4-diethyl-2-imino-6-oxo-hexahydropyrimidin-1-yl)-N-[(1R,2S)-2-hydroxy-2-methyl-indan-1-yl]-1,1-dioxo-3,4-dihydro-2H-thiochromene-6-carboxamide] is 10-fold higher in EC50: 7.4 nM for the first, 74.8 nM for the second.

CCC1(CC)CC(=O)N([C@@H]2CCOc3ccc(C(=O)NC(CCc4ccccc4)c4ccccc4)cc32)C(=N)N1 (stereo partly drawn) [Example 264, (4R)-4-(4,4-diethyl-2-imino-6-oxo-hexahydropyrimidin-1-yl)-N-(1,3-diphenylpropyl)chromane-6-carboxamide] and CCC1(CC)CC(=O)N([C@@H]2CCOc3ccc(C(=O)N[C@@H]4c5cc(Cl)ccc5OC[C@@]4(C)O)cc32)C(=N)N1 [Example 266, (4R)-N-[(3S,4R)-6-chloro-3-hydroxy-3-methyl-chroman-4-yl]-4-(4,4-diethyl-2-imino-6-oxo-hexahydropyrimidin-1-yl)chromane-6-carboxamide] are within 1.5-fold of each other in EC50: 3.3 nM for the first, 2.6 nM for the second.

First: CC1(C)CC(=O)N([C@@H]2CCS(=O)(=O)c3ccc(C(=O)N[C@@H]4c5ccccc5OC(C)(C)[C@H]4O)cc32)C(=N)N1 [Example 265, (4R)-N-[(3S,4R)-3-hydroxy-2,2-dimethyl-chroman-4-yl]-4-(2-imino-4,4-dimethyl-6-oxo-hexahydropyrimidin-1-yl)-1,1-dioxo-3,4-dihydro-2H-thiochromene-6-carboxamide]
Second: CCC1(CC)CC(=O)N(C2CC(C(=O)N(C)C)Oc3ccc(C(=O)N[C@@H]4c5ccccc5C[C@H]4O)cc32)C(=N)N1 (stereo partly drawn) [Example 274, 4-(4,4-diethyl-2-imino-6-oxo-hexahydropyrimidin-1-yl)-N6-[(1R,2R)-2-hydroxyindan-1-yl]-N2,N2-dimethyl-chromane-26,-dicarboxamide]
The EC50 of the first is 3.2-fold lower: 31.1 nM for the first, 98.5 nM for the second. The first is the more potent here.

CC[C@]1(C)CC(=O)N([C@@H]2CCOc3ccc(C(=O)N[C@@H]4C[C@@H](COC(F)F)Oc5ccccc54)cc32)C(=N)N1 [Example 267, (4R)-N-[(2S,4R)-2-(difluoromethoxymethyl)chro-man-4-yl]-4-[(4R)-4-ethyl-2-imino-4-methyl-6-oxo-hexahydropyrimidin-1-yl]chromane-6-carboxamide] and CC[C@]1(C)CC(=O)N([C@@H]2CCOc3ccc(C(=O)N[C@@H]4C[C@H](COC(F)F)Oc5ccccc54)cc32)C(=N)N1 [Example 268, (4R)-N-[(2R,4R)-2-(difluoromethoxymethyl)chro-man-4-yl]-4-[(4R)-4-ethyl-2-imino-4-methyl-6-oxo-hexahydropyrimidin-1-yl]chromane-6-carboxamide] are within 1.5-fold of each other in EC50: 24 nM for the first, 25 nM for the second.

Compared with CC[C@]1(C)CC(=O)N([C@@H]2CCOc3ccc(C(=O)N[C@H]4C[C@H](COC(F)F)Oc5ccccc54)cc32)C(=N)N1 [Example 269, (4R)-N-[(2R,4S)-2-(difluoromethoxymethyl)chro-man-4-yl]-4-[(4R)-4-ethyl-2-imino-4-methyl-6-oxo-hexahydropyrimidin-1-yl]chromane-6-carboxamide], CC[C@]1(C)CC(=O)N([C@@H]2CCOc3ccc(C(=O)N[C@H]4C[C@@H](COC(F)F)Oc5ccccc54)cc32)C(=N)N1 [Example 270, (4R)-N-[(2S,4S)-2-(difluoromethoxymethyl)chro-man-4-yl]-4-[(4R)-4-ethyl-2-imino-4-methyl-6-oxo-hexahydropyrimidin-1-yl]chromane-6-carboxamide] is 1.6-fold lower in EC50: 2.9 nM for the first, 1.8 nM for the second. The second is the more potent here.

First: CCC1(CC)CC(=O)N([C@@H]2CCOc3ccc(C(=O)NC4c5ccc(C(F)(F)F)cc5CC4N)cc32)C(=N)N1 (stereo partly drawn) [Example 271, (4R)-N-[2-amino-5-(trifluoromethyl)indan-1-yl]-4-(4,4-diethyl-2-imino-6-oxo-hexahydropyrimidin-1-yl)chromane-6-carboxamide]
Second: CC1(C)CC(=O)N([C@@H]2CCOc3ccc(C(=O)N[C@@H]4c5cc(Cl)cc(Cl)c5OC[C@@]4(C)O)cc32)C(=N)N1 [Example 273, (4R)-N-[(3S,4R)-6,8-dichloro-3-hydroxy-3-methyl-chroman-4-yl]-4-(2-imino-4,4-dimethyl-6-oxo-hexahydropyrimidin-1-yl)chromane-6-carboxamide]
The EC50 of the first is 23-fold higher: 182 nM for the first, 7.8 nM for the second. The second is the more potent here.
